Substitutions are numbered along the chain they refer to. “Also recorded” adds a separate entry of the source.
Assays:
[1] = molecular target: T1, human OCT1*1 (wild-type) (Homo sapiens, UniProt O15245); assay: Concentration-dependent uptake (transport kinetics) in HEK293 cells overexpressing OCT1 wild-type; conditions: for Clint (±SEM): intrinsic clearance = ratio of Vmax and KM, OCT1 wild-type
T1 sequence (O15245 1-554): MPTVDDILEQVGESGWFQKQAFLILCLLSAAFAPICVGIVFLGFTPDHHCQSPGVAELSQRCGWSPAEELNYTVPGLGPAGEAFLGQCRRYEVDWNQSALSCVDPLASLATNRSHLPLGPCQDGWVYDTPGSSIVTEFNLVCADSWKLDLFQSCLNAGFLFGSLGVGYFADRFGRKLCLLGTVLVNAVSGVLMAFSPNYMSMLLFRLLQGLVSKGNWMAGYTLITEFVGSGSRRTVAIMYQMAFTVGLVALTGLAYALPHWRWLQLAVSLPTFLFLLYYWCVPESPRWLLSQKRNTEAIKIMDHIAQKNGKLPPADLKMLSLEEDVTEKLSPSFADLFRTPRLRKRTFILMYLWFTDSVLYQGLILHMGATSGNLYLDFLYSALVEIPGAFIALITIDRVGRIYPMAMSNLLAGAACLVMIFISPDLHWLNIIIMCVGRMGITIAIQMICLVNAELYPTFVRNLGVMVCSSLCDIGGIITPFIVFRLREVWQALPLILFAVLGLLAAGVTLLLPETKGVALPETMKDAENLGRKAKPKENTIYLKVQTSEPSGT

[2] = molecular target: T1, human OCT1*1 (wild-type); assay: Cellular uptake ratio, OCT1-overexpressing HEK293 cells vs empty vector; assay type: cell-based; conditions: based on ratio uptake data at 1 µM
Protocol: (§1) The wild-type cell lines of OCT1 and OCT2, as well as the variant cell lines OCT1*2 and *3, were generated using the Flp-In system (Thermo Fisher Scientific, Darmstadt, Germany) as described in previous publications. The cell line overexpressing OCT3 was a kind gift from Dr. Koepsell and Dr. Gorbulev (University of Würzburg, Germany). Cells transfected with the empty pcDNA5/FRT vector were used for the transport experiments as a control cell line. All cells were cultured approximately up to passage 30.
(§2) Forty-eight hours before the transport experiments, 600,000 cells were plated on 12-well plates pre-coated with poly-D-lysine and incubated at 37 °C with 5% CO2. The prepared 12-well plate with cells was positioned on a heating plate pre-warmed to 37 °C. After removing the medium, the cells were washed with 37 °C HBSS+ (10 mM HEPES in Hank’s balanced salt solution, pH 7.4). Then, one pre-defined concentration of a substrate was added to each well. The incubation period was stopped by adding 2 mL of 4 °C HBSS+ and removing the cells from the heating plate. The cells were washed twice with 4 °C HBSS+. For cell lysis, the cells were incubated for 15 min with 500 µL of 80% acetonitrile (LGC Standards, Wesel, Germany), which contained a respective internal standard (Table 1).
(§3) For concentration-dependent transport, the cells were incubated with defined substrate concentrations (0.1, 1, 10, 30, 100, 300, 600, 1000 µM) for the respective pre-defined incubation times. […] The uptake by a transporter was normalised to the uptake by empty vector-transfected cells. […] The results of transport experiments were normalized to the total protein concentration per well. Total protein quantification was performed using a bicinchoninic acid assay with bovine serum albumin as standard.
(§4) The ratios of cellular uptake were calculated by dividing the total uptake of transporter-overexpressing cells by the total uptake into empty vector transfected cells. The concentration-dependent cellular net uptake was used for analysis of transport kinetics by subtracting for each substrate concentration the uptake of empty vector-transfected cells from the uptake of transporter-overexpressing cells. […] The intrinsic clearance Clint was expressed with the ratio of Vmax and KM.

[3] = molecular target: T2, wild-type human OCT2 (Homo sapiens, UniProt O15244); assay: Cellular uptake ratio, OCT2-overexpressing HEK293 cells vs empty vector; assay type: cell-based; conditions: based on ratio uptake data at 1 µM
T2 sequence (O15244 1-555): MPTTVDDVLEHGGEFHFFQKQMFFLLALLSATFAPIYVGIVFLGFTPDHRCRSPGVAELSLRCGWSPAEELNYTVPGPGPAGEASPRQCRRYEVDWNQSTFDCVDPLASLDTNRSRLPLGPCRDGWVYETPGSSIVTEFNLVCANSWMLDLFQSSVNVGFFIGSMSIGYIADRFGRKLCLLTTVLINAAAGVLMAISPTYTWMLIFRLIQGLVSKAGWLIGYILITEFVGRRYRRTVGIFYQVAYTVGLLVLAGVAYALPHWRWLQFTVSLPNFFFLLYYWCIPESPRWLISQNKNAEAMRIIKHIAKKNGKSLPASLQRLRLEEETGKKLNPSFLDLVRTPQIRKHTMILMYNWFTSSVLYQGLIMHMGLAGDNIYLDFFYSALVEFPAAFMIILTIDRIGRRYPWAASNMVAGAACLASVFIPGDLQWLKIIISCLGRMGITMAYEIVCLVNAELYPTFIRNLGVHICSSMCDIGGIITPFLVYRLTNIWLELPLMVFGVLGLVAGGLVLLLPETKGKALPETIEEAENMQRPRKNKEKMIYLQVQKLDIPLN
Protocol: as §1, §2, §3, §4

[4] = molecular target: T3, OCT3 (Homo sapiens, UniProt O75751); assay: Cellular uptake ratio, OCT3-overexpressing HEK293 cells vs empty vector; assay type: cell-based; conditions: based on ratio uptake data at 1 µM
T3 construct: expressed in transfected cells; host or cells: HEK293, stably transfected; gift from Dr. Koepsell and Dr. Gorbulev (University of Würzburg)
T3 sequence (O75751 1-556): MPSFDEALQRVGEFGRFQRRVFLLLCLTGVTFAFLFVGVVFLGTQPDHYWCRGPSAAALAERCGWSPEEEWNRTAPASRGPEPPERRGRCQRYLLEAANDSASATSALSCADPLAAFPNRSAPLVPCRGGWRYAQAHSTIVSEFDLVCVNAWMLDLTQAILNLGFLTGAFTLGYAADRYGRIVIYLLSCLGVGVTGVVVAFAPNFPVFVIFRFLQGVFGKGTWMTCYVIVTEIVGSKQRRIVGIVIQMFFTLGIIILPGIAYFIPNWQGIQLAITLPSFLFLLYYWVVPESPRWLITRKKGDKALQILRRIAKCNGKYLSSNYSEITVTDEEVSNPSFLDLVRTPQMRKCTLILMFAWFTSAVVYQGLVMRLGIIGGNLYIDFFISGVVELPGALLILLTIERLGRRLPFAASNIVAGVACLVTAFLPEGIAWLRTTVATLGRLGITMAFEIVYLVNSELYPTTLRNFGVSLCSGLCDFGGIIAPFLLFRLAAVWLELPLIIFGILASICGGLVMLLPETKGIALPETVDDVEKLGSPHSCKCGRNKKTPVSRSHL
Protocol: as §1, §2, §3, §4

[5] = molecular target: T4, mutant human OCT1 D474N (Homo sapiens, UniProt O15245, D474N); assay: Cellular uptake by HEK293 cells overexpressing variant OCT1 D474N; assay type: cell-based; conditions: p < 0.01
T4 construct: expressed in transfected cells
T4 sequence (O15245 1-554 D474N): T1 sequence (O15245 1-554) with D474N

[6] = molecular target: T5, OCT1*3 (R61C) (Homo sapiens, UniProt O15245, R61C); assay: Cellular uptake by HEK293 cells overexpressing OCT1*3; assay type: cell-based; conditions: 1 µM substance
T5 construct: expressed in transfected cells
T5 sequence (O15245 1-554 R61C): T1 sequence (O15245 1-554) with R61C
Protocol: as §1, with “The transport experiments were performed using HEK293 cells that overexpress human OCT1*1 (wild-type), mutant human OCT1 D474N, variant human OCT1*2 (M420del) and OCT1*3 (R61C), wild-type human OCT2, and OCT3 after stable transfection. The wild-type” for “The wild-type”
as §2
(§5) For time-dependent transport, the cells were incubated with 1 µM of the substance for 15 to 240 s to determine the linear uptake range ≥ 15 s. For concentration-dependent transport, the cells were incubated with defined substrate concentrations (0.1, 1, 10, 30, 100, 300, 600, 1000 µM) for the respective pre-defined incubation times. […]; 100 µM) and pre-defined incubation times. The uptake by a transporter was normalised to the uptake by empty vector-transfected cells. […] The results of transport experiments were normalized to the total protein concentration per well. Total protein quantification was performed using a bicinchoninic acid assay with bovine serum albumin as standard.
(§6) The ratios of cellular uptake were calculated by dividing the total uptake of transporter-overexpressing cells by the total uptake into empty vector transfected cells. The concentration-dependent cellular net uptake was used for analysis of transport kinetics by subtracting for each substrate concentration the uptake of empty vector-transfected cells from the uptake of transporter-overexpressing cells. The transport kinetic parameters Vmax and KM were determined with non-linear regression by using the Michaelis–Menten equation for net uptake data and by using the Michaelis–Menten equation extended with a linear term for total uptake data (GraphPad Prism 5.01, GraphPad software, LA Jolla, CA, USA). The intrinsic clearance Clint was expressed with the ratio of Vmax and KM.

[7] = Concentration-dependent uptake into empty vector-transfected HEK293 cells; assay type: cell-based, human; conditions: human, empty vector (pcDNA5/FRT)-transfected HEK293 cells, pH 7.4; empty vector-transfected HEK cells; read-out: intrinsic clearance
Protocol: as §1, with “The transport experiments were performed using HEK293 cells that overexpress human OCT1*1 (wild-type), mutant human OCT1 D474N, variant human OCT1*2 (M420del) and OCT1*3 (R61C), wild-type human OCT2, and OCT3 after stable transfection. The wild-type” for “The wild-type”
as §2, §5, §6

[8] = tested on: empty vector-transfected HEK cells; assay: as above; assay type: cell-based, human; conditions: uptake into empty vector-transfected cells
Protocol: as §1, with “The transport experiments were performed using HEK293 cells that overexpress human OCT1*1 (wild-type), mutant human OCT1 D474N, variant human OCT1*2 (M420del) and OCT1*3 (R61C), wild-type human OCT2, and OCT3 after stable transfection. The wild-type” for “The wild-type”
as §2, §5, §6

| uptake by OCT1*3 in comparison to OCT1*1 [6] | Clint (±SEM) [1] | Clint (±SEM) ([1]; listed as methyldopa) | microsomal CLint [7] | Compound | OCT1 substrate classification from concentration-dependent uptake ([1]; good >5, poor 1–5, non-substrate <1 µL/mg protein/min or uptake not above empty vector) | OCT1 transport category [2] | OCT2 transport category [3] | OCT3 transport category [4] | enhancement of uptake by OCT1 D474N compared to wild-type [5] | Km [8] | Vmax [8] |
| --- | --- | --- | --- | --- | --- | --- | --- | --- | --- | --- | --- |
|  |  |  |  | C[N+](C)(C)[C@@H](Cc1c[nH]c2ccccc12)C(=O)[O-] [Hypaphorine, hypaphorine] | linear increase in total uptake of both cell lines | 0 (no transport by OCT1, OCT2, and OCT3 occurred (i.e., no kinetic parameters or uptake ratio <2 without significance)) | 0 (no transport by OCT1, OCT2, and OCT3 occurred (i.e., no kinetic parameters or uptake ratio <2 without significance)) | 0 (no transport by OCT1, OCT2, and OCT3 occurred (i.e., no kinetic parameters or uptake ratio <2 without significance)) | two-fold enhancement; also recorded: significantly increased uptake by the variant OCT1 D474N |  |  |
| reduction in uptake |  |  |  | Nc1ccn([C@@H]2CS[C@H](CO)O2)c(=O)n1 [Lamivudine, lamivudine] |  |  |  | 0 (no transport by OCT1, OCT2, and OCT3 occurred (i.e., no kinetic parameters or uptake ratio <2 without significance)) |  |  |  |
|  | 5.94 ± 4.63 µL/mg Protein/min | 5.94 µL/mg Protein/min | 15.1 µL/min/mg | C[C@](N)(Cc1ccc(O)c(O)c1)C(=O)O [Methyldopa, L-(–)-α-methyldopa] |  | +/− (poor transport with a Clint < 5 or ratio between 1–2 with statistical significance (p < 0.05)) | 0 (no transport by OCT1, OCT2, and OCT3 occurred (i.e., no kinetic parameters or uptake ratio <2 without significance)) | 0 (no transport by OCT1, OCT2, and OCT3 occurred (i.e., no kinetic parameters or uptake ratio <2 without significance)) |  | 32.2 µM | 488 pmol/mg protein/min |

— PMC9687798, “Atypical Substrates of the Organic Cation Transporter 1” (Biomolecules, 2022)
